These are literature values, as cited in US7709469B2, “P2X7 receptor antagonists and methods of use” (Abbott Laboratories, priority 2005, dated 2010).

Data set [1] has as its target T1, P2X7 (Rattus norvegicus, UniProt Q64663).
T1 sequence (Q64663 1-595): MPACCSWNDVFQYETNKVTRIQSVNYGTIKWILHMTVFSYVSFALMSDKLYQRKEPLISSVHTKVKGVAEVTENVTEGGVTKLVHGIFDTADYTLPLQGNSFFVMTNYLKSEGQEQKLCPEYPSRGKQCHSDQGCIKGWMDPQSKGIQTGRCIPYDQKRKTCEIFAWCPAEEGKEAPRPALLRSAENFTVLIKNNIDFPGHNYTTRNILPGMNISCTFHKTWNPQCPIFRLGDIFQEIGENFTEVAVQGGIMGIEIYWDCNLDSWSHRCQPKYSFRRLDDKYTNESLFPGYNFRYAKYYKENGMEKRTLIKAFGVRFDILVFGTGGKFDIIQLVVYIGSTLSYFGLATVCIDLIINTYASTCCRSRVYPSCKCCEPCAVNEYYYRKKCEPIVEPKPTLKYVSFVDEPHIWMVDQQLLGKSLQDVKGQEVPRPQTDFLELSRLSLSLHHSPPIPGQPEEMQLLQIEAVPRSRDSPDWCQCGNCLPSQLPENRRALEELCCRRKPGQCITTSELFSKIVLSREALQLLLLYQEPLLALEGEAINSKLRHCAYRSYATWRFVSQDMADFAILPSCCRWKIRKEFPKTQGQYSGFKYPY
Further details: Rats with SCI were administered P2X7 receptor irreversible antagonists oATP and PPADS; host or cells: living rats (endogenous receptor). Conditions: rats with SCI.

The target of data set [2] is T1, P2X7. The arrangement: host or cells: living rats (endogenous receptor). Conditions: inflamed rats.

As for `Nc1ncnc2c1ncn2[C@@H](C=O)O[C@@H](C=O)COP(=O)(O)OP(=O)(O)OP(=O)(O)O` [oATP, Oxidized ATP], the “histological injury and recovery of motor function after SCI” value at P2X7 [1] was “decrease of histological injury and improved recovery of motor function”. Further, the antinociceptive properties result on P2X7 [2] is “possess peripherally mediated antinociceptive properties”.
With `Cc1nc(N=Nc2ccc(S(=O)(=O)O)cc2S(=O)(=O)O)c(COP(=O)(O)O)c(C=O)c1O` [PPADS], the “histological injury and recovery of motor function after SCI” value at P2X7 [1] is “decrease of histological injury and improved recovery of motor function”.
